Reference: patent US20040219228A1, “Animal model for inflammatory bowel disease” (Pfizer Inc, priority 2003, published 2004)

Assays:
Type in all cases: in vivo, mouse
IFN-γ = IFN-γ levels in homogenised colon samples (ELISA); conditions: mdr1a−/− mice
Procedure: (§1) Following the acclimatisation period, mdr1a^−/− mice with mild and moderate disease scores (mild disease (0-3) was defined by absence of gain or mild body weight loss (<0.5 g) and no other symptoms, whereas moderate disease (4-10) was defined by similar symptoms as a previous group but with soft faeces or greater loss in body weight (>20%) were randomised into 4 groups and dosed subcutaneously (s.c.) with vehicle (water, n=8) or dexamethasone (0.05 mg/kg, n=9; 0.3 mg/kg, n=8 or 2 mg/kg, n=8) daily for 7 days. The 6 mdr1a^+/+ mice received vehicle (water). During the study period, one mouse from the group treated with 0.3 mg/kg dexamethasone was found dead and two were euthanised (one from the vehicle-treated group and one from the group treated with 0.05 mg/kg dexamethasone). At the end of the study all mice were euthanased. The colon and caecum from each mouse was removed and weighed. Each colon was then divided longitudinally so that one section could be processed for histological analysis and the other for cytokine measurement (see below).
(§2) Each individual colon sample was homogenised three times for 30 seconds at 4° C. in 3ml of ice-cold Krebs' solution (Sigma Chemical Co. U.K.). Samples were centrifuged for 15 min at 35,000 g (4° C.) and supernatants were removed. IL-8 and IFN-γ levels were then measured by ELISA kits (R&D systems, U.K.). The detection limits of these kits were 31.2-2000 pg/ml. Protein levels was assayed in supernatants using the method described by Bradford (Bradford, M. (1976) Analyt. Biochem. 72, 248-254), utilising Bradford Reagent (Sigma).
(§3) Data were analysed for the 29 mdr1a^−/− and 6 mdr1a^+/+ mice, which completed the study. Differences between vehicle treated mdr1a^−/− and mdr1a^+/+ mice were analysed using a two sample t-test (assuming equal variance for IFN-γ, growth rate in the acclimatisation period and final weight, and unequal variance for IL-8, colon weight, caecum weight, colon to body weight ratio, caecum to body weight ratio and growth rate during the study period). The effects of dexamethasone treatment were analysed using analysis of variance (ANOVA) allowing for culling group.

mdr1a^−/− mice = test: mdr1a−/− mice given chlorinated drinking water as IBD model: clinical signs, body weight, colon and caecum weights; conditions: for Body weight (Mean ± s.e.m.): end of study; for Growth rate (Mean ± s.e.m.): over study period
From the text: Forty male mdr1a^−/− mice (strain FVB.129P2-Pgy3^tm1 N7) and six control male mice (mdr1a^+/+) from the same genetic background (FVB; strain FVB/NTac) (6-8 weeks old) were obtained from Taconic Farms (U.S.A). Mice were individually housed in solid bottom cages containing autoclaved Bee Kay bedding from Bantin & Kingman (U.K.) with the addition of Envirodri, a nesting material made from virgin paper, free from deodorising chemicals, to provide enrichment. Mice were fed on RAT & Mouse No 1 maintenance diet (RMI (E) SQC) (Special Diet services, Witham, Essex, U.K.) on arrival at Pfizer. For this study we used bottled water and Klortabs (5 ppm) (Arrowmight Biosciences, U.K.) to eliminate the possibility of water borne spreading of bacterial pathogens and to provide a water supply with constant levels of chlorine. Water was changed twice a week. This study was carried out in accordance with UK legislation and approved by Pfizer's internal ethical review process.
Prior to commencing the study, all mice (40 mdr1a^−/− and 6 mdr1a^+/+) acclimatised for 14 days. […] A scoring system was devised with different weightings for different clinical signs (Table 1). The intention was that the score should reflect the severity of the colitis.
as §1, §3

[1] = tested on: colon/rectum of mdr1a^−/− mice; test: Histological grading of colitis severity (score 0-4); conditions: for Colitis severity score graded histologically (Mean ± s.e.m.): scale 0-4
Procedure: as §1
The animals were necropsied. The colon/rectum and caecum were weighed and colon/rectum, caecum, ileum, jejunum, duodenum, stomach, mesenteric nodes, thymus, kidney, spleen were sampled and fixed in 10% buffered formalin solution. The colon/rectum and ileum were prepared in a “Swiss roll” technique (Moolenbeek, C. & Ruitenberg E. J. (1981) Lab Anim 15(1):57-9) to evaluate their whole longitudinal section one slide. Tissues were processed routinely in an automatic tissue processor, embedded in paraffin, sectioned at 4-6 μm, stained with hematoxylin and eosin (HE), and examined histologically. The colitis was graded from 0 (no significant findings) to 4 (severe proliferative and ulcerative inflammation) according to the extent of the findings and severity of mucosal changes (Table 2) by a blinded observer. In addition, the mucosal height of the whole colon/rectum were assessed about every 100 μm with a standard interactive microcomputer-assisted image analysis system.
Colitis severity score is an ordered categorical measure graded on a scale of 0-4. This type of data is generally analysed using a proportional odds model, however due to the small sample size this was not appropriate and ANOVA was used. This makes the assumption of having normally distributed data, which although we had categorical data, seemed to hold approximately true. All analysis was carried out using Genstat 5 Release 4.2 for Windows.

IL-8 = IL-8 levels in homogenised colon samples (ELISA); conditions: mdr1a−/− mice
Procedure: as §1, §2, §3

[2] = 0.05 mg/kg s.c. daily for 7 days
[3] = 0.3 mg/kg s.c. daily for 7 days
[4] = lower doses (0.05 and 0.3 mg/kg s.c.)

Question: Which “IFN-γ level in homogenised colon (Mean ± s.e.m)” value (“IFN-γ level in homogenised colon” below) (IFN-γ; [2]) does the source give for `C[C@@H]1C[C@H]2[C@@H]3CCC4=CC(=O)C=C[C@]4(C)[C@@]3(F)[C@@H](O)C[C@]2(C)[C@@]1(O)C(=O)CO` [dexamethasone] here?
Answer: Its value is 177 ± 32.6 pg/mg protein.

Question: What about the “IFN-γ level in homogenised colon” value (IFN-γ; [3]) of the same compound?
Answer: Its value is 169 ± 32.6 pg/mg protein.

Question: And the “IFN-γ level in homogenised colon” value (IFN-γ; 2 mg/kg s.c. daily for 7 days)?
Answer: The value was 100 ± 30.5 pg/mg protein.

Question: And the “Effect on IFN-γ levels in homogenised colons” value (IFN-γ; any of the doses used)?
Answer: The value was “no effect”.

Question: And the “Clinical score (Mean ± s.e.m.)” value (mdr1a^−/− mice; [2])?
Answer: The value was 56 ± 8.9.

Question: What about the “Body weight (Mean ± s.e.m.)” value (mdr1a^−/− mice; [2]) of the same compound?
Answer: The value was 22.2 ± 0.77 g.

Question: And the “Growth rate (Mean ± s.e.m.)” value (mdr1a^−/− mice; [2])?
Answer: The value was -0.427 ± 0.099 g/day.

Question: And the “Clinical score (Mean ± s.e.m.)” value (mdr1a^−/− mice; [3])?
Answer: Its value is 37 ± 8.9.

Question: What about the “Body weight (Mean ± s.e.m.)” value (mdr1a^−/− mice; [3]) of the same compound?
Answer: The value was 22.6 ± 0.77 g.

Question: And the “Growth rate (Mean ± s.e.m.)” value (mdr1a^−/− mice; [3])?
Answer: The value was -0.260 ± 0.099 g/day.

Question: What about the “Clinical score (Mean ± s.e.m.)” value (mdr1a^−/− mice; 2 mg/kg s.c. daily for 7 days) of the same compound?
Answer: Its value is 32 ± 8.3.

Question: And the “Body weight (Mean ± s.e.m.)” value (mdr1a^−/− mice; 2 mg/kg s.c. daily for 7 days)?
Answer: The value was 22.7 ± 0.72 g.

Question: What about the “Growth rate (Mean ± s.e.m.)” value (mdr1a^−/− mice; 2 mg/kg s.c. daily for 7 days) of the same compound?
Answer: Its value is -0.271 ± 0.093 g/day.

Question: And the “Colon to body weight ratio” value (mdr1a^−/− mice; 2 mg/kg s.c. daily for 7 days, vehicle 3.0±0.28, P=0.017)?
Answer: Its value is 2.1±0.26.

Question: What about the Absolute colon weight (mdr1a^−/− mice; 2 mg/kg s.c. daily for 7 days, vehicle 691±52 mg, P<0.01) of the same compound?
Answer: The Absolute colon weight was 456 ± 48 mg.

Question: And the “Effect on overall clinical scores of colitis” value (mdr1a^−/− mice; 0.05-2 mg/kg s.c.)?
Answer: Its value is “no effect”.

Question: And the “Effect on final body weight” value (mdr1a^−/− mice; any of the doses used)?
Answer: Its value is “no significant effect”.

Question: What about the “Effect on growth rate” value (mdr1a^−/− mice; any of the doses used) of the same compound?
Answer: The value was “no significant effect”.

Question: What about the “Effect on absolute colon weight vs. vehicle” value (mdr1a^−/− mice; [4]) of the same compound?
Answer: Its value is “no significant effect”.

Question: What about the “Effect on colon to body weight ratio vs. vehicle” value (mdr1a^−/− mice; [4]) of the same compound?
Answer: The value was “no significant effect”.

Question: What about the “Colitis severity score graded histologically (Mean ± s.e.m.)” value [1, 2] of the same compound?
Answer: The value was 4.0 ± 0.42.

Question: And the “Colitis severity score, difference from vehicle” value ([1]; 0.05 mg/kg s.c., p >0.05)?
Answer: The value was 0.3.

Question: And the “Colitis severity score graded histologically (Mean ± s.e.m.)” value [1, 3]?
Answer: Its value is 3.1 ± 0.42.

Question: What about the “Colitis severity score, difference from vehicle” value ([1]; 0.3 mg/kg s.c., p >0.05) of the same compound?
Answer: Its value is −0.6.

Question: And the “Colitis severity score graded histologically (Mean ± s.e.m.)” value ([1]; 2 mg/kg s.c. daily for 7 days)?
Answer: The value was 2.4 ± 0.39.

Question: And the “Colitis severity score, difference from vehicle” value ([1]; 2 mg/kg s.c., p <0.05)?
Answer: Its value is −1.3.

Question: What about the “IL-8 level in homogenised colon (Mean ± s.e.m)” value (from here on “IL-8 level in homogenised colon”) (IL-8; [2]) of the same compound?
Answer: The value was 317 ± 65.7 pg/mg protein.

Question: What about the “IL-8 level in homogenised colon” value (IL-8; [3]) of the same compound?
Answer: The value was 264 ± 65.7 pg/mg protein.

Question: And the “IL-8 level in homogenised colon” value (IL-8; 2 mg/kg s.c. daily for 7 days)?
Answer: The value was 220 ± 61.5 pg/mg protein.

Question: And the “Effect on IL-8 levels in homogenised colons” value (IL-8; any of the doses used)?
Answer: The value was “no effect”.
